Values quoted from earlier work as cited in PMC7094870 (ACS chemical biology, 2020).

System: platinum resistant ovarian cancer and non-small cell lung cancer
Conditions: patients; cited from earlier work

COc1ccc(C[C@H]2NC(=O)/C=C/C[C@@H]([C@H](C)[C@H]3O[C@@H]3c3ccccc3)OC(=O)[C@H](CC(C)C)OC(=O)C(C)(C)CNC2=O)cc1Cl [cryptophycin-52]
dose limiting toxicity in clinical trials: dose limiting peripheral neuropathy
